Reference: article PMC4858447 (ACS chemical biology, 2015)
Read-outs that look alike come from different tables or passages of the source.

What was measured:
5FW-BPTF bromodomain = 5FW-BPTF bromodomain (Homo sapiens, UniProt Q12830); assay: Protein-observed 19F NMR; format: binding; conditions: for BPTF 19F NMR: 100 μM compound, 50 μM Brd4 and BPTF, 1% DMSO; for selectivity between BPTF and Brd4 by PrOF NMR (in words): dual screen
[1] = biological target: 5FW-Brd4 (first bromodomain of Brd4) (Homo sapiens, UniProt O60885); assay: Protein-observed 19F NMR; format: binding; conditions: for Brd4 19F NMR: 100 μM compound, 50 μM Brd4 and BPTF, 1% DMSO; for binding to Brd4 (in words): PrOF NMR
Cell viability assay = format: cell-based, human; conditions: human, HEK 293T cells
HEK 293T cells = assay: Cell viability assay; format: cell-based, human; conditions: 24 hours at 3 and 10 μM
[2] = system: BPTF-regulatory region upstream of Mobkl3 promoter in Eph4 cells; assay: pGL3_Mobkl3p luciferase reporter assay; format: cell-based, mouse; conditions: 5 μM for 12 hours, pGL3_Mobkl3p vector
[3] = read-out: EC50 in five cellular assays; ChEMBL search; targets unknown; cited from earlier work
hepatocytes = conditions: 10 μM compound; cited from earlier work
Brd4 [4] = biological target: T1, Brd4 (Homo sapiens, UniProt O60885); assay: Fluorescence anisotropy competition against bound BODIPY-BI2536; format: binding
Brd4 [5] = biological target: T1, Brd4; assay: Differential scanning fluorimetry; format: binding; conditions: DSF, 100 μM inhibitor, 4 μM Brd4

| Compound | BPTF 19F NMR (5FW-BPTF bromodomain) | Brd4 19F NMR [1] | selectivity between BPTF and Brd4 by PrOF NMR (in words) (5FW-BPTF bromodomain) | other results |
| --- | --- | --- | --- | --- |
| CCn1c(-c2nonc2N)nc2c(-c3ccccc3)ncc(OCCCN)c21 [GSK260205A] | +++ | +++ |  |  |
| CCn1c(-c2nonc2N)nc2c(C#CCN)ncc(OCCCN)c21 [GSK561866B] | ++ (a resonance from the protein in question has been perturbed by 2 standard deviations in either chemical shift or linewidth) | - | highly selective for BPTF |  |
| O=C(Nc1ccc2c(c1)OCO2)NC1CCN(c2ccnc(Nc3ccc(F)cc3)n2)C1 (stereo not drawn) [GSK1379724A] |  |  |  | binding to BPTF (in words) (5FW-BPTF bromodomain; PrOF NMR): unable to bind; binding to Brd4 (in words) [1]: unable to bind |
| Oc1ccc(-c2nc(-c3ccncc3)c(-c3ccc(F)cc3)[nH]2)cc1 [SB-202190, reference compound] |  |  | selective for Brd4 over BPTF |  |
| CCc1ccc(Oc2nccc(-c3c(-c4ccc(F)cc4)ncn3C3CCNCC3)n2)cc1 [SB-242719] | + (a resonance from the protein in question has been perturbed by 1 standard deviation in either chemical shift or linewidth) | +++ |  | Ki (Brd4 [4]): 13 ± 3 µM; fold weaker affinity (Brd4 [4]; relative to SB-284851-BT (1)): 40 fold |
| Cc1cnc(Nc2ccc(OCCN3CCCC3)cc2)nc1Nc1cccc(S(=O)(=O)NC(C)(C)C)c1 [TG-101348, reference compound] |  |  | selective for Brd4 over BPTF |  |

Further lines, with some results ahead:

| BPTF 19F NMR (5FW-BPTF bromodomain) | Brd4 19F NMR [1] | selectivity between BPTF and Brd4 by PrOF NMR (in words) (5FW-BPTF bromodomain) | Compound | other results |
| --- | --- | --- | --- | --- |
| +++ | - |  | COC(=O)c1cccc(NC(=O)NC2CCN(c3ccnc(Nc4ccc(F)cc4)n3)C2)c1 (stereo not drawn) [AU1] | binding to Brd4 (in words) [1]: No binding is detected; viability at 48 h, 10 µM (Cell viability assay): 76%; cellular toxicity against HEK 293T cells (HEK 293T cells): no cellular toxicity; loss of luciferase activity [2]: ~ 4 fold; EC50 [3]: 0.5 µM; cellular toxicity in hepatocytes (hepatocytes): did not detect cellular toxicity |
| +++ | - | completely selective for BPTF over Brd4 | COC(=O)c1cccc(NC(=O)NC2CCN(c3ccnc(Nc4ccc(OC)cc4)n3)C2)c1 (stereo not drawn) [GSK1379746A] |  |
| +++ | +++ |  | COC(=O)c1cccc(NC(=O)NC2CCN(c3ccnc(Nc4cc(OC)c(OC)c(OC)c4)n3)C2)c1 (stereo not drawn) [GSK1379767A] |  |
| - | +++ |  | CN(C)CCOc1ccc(-c2nc(-c3ccncc3)c(-c3ccc4c(c3)CC/C4=N\O)[nH]2)cc1 [SB-590885-AAE] | Brd4 ΔTm (Brd4 [5]): 5.1 ± 0.4 °C; Ki (Brd4 [4]; read-out: Brd4 FP Ki, competition with BODIPY-BI2536, 156 nM Brd4): 0.4 ± 0.23 µM |
